From article PMC7618104, “The GLP-1 analogue, exendin-4, improves bone material properties and strength through a central relay in ovariectomized mice” (American journal of physiology. Endocrinology and metabolism, 2025)

Legend:
Assay type in all cases: in vivo, mouse (BALB/cJRj, female)
[1] = system: ovariectomized BALB/c mice; assay: Tissue material strength of femur (from peak bending moment and geometry); settings: 28 days, vs OVX+vehicle, n=8
Procedure: (§1) Eight animals were randomly assigned to each group.
The whole-bone strength of right femurs was assessed by 3-point bending in accordance with published guidelines ([34]). Three-point bending strength was measured with a constant span length of 10 mm. Bones were tested in the antero-posterior axis with the posterior surface facing upward, centered on the support and the pressing force was applied vertically to the midshaft of the bone. Each bone was tested fully hydrated and at room temperature with a loading speed of 2 mm.min^-1 until failure with a 500 N load cell on an Instron 5942 device (Instron, Elancourt, France) and the load-displacement curve was recorded at a 100 Hz rate by the Bluehill 3 software (Instron). Ultimate load, ultimate displacement, stiffness and work to fracture were calculated as indicated in ([34]). The yield point was determined as the point at which a regression line that represents a 10% loss in stiffness crosses the load-displacement curve. Post-yield displacement was computed as the displacement between yielding and fracture. Peak bending moment was calculated as one-half the ultimate load multiplied by one-half the span length ([34]). The peak bending moment is related to bone tissue material properties and bone midshaft geometry by the following equation: M=σb×IML/cAP […]

[2] = system: ovariectomized BALB/c mice; assay: Bone ECM material evaluation by infrared microspectroscopy, midshaft femur; settings: 28 days, n=8
Procedure: as §1
Distal halves of the right femur were embedded undecalcified in pMMA after dehydration and infiltration. One micrometer-thick cross-section of the midshaft femur was cut with an ultramicrotome (Leica EM UC7, Leica microsystems, Nanterre, France) and deposited on BaF2 windows. Spectral analysis was performed, using a Bruker Hyperion 3000 infrared microscope coupled to a Bruker Vertex 70 spectrometer equipped with a single element mercury cadmium telluride (MCT) detector, between double calcein labels, as indicator of bone formation site. Mid-infrared spectra were recorded at a resolution of 4 cm^-1 (Spectral range 850–2000 cm^-1), with 32 accumulations in transmission mode. Background spectra were collected under identical conditions from the same BaF2 windows at the beginning and end of each experiment to ensure instrument stability. Post-processing was performed using Matlab R2023b (The Mathworks, Natick, CA) and included Mie scattering correction, pMMA subtraction, normalization and denoising (Savitzky-Golay algorithm, degree 2, span 9) prior to second derivative spectroscopy and curve fitting routines as previously reported in detail ([35]). A signal-to-noise ratio was computed in the region 1850-2000 cm^-1 to ensure proper denoising and quality of FTIR spectra for subsequent second derivative and curve fitting. Bone ECM material parameters were: Phosphate/Amide ratio (area ratio of v1,v3 phosphate and amide I); mineral crystallinity/maturity (XST, area ratio of subbands located at subbands ~1030 cm^-1 and ~1020 cm^-1), carbonate/phosphate ratio (area ratio of v2 carbonate and v1,v3 phosphate), and collagen maturity (intensity ratio of subbands located at 1660 cm^-1/1690 cm^-1) ([35]).

[3] = system: ovariectomized BALB/c mice; assay: Bone histomorphometry at the proximal tibia metaphysis; settings: 28 days, n=8; for BFR/BS / MAR / MS/BS / O.Th / OS/BS / N.Oc/B.Pm / Oc.S/BS: mean ± SD; for N.Oc/B.Pm / Oc.S/BS: p<0.001 vs. OVX+Vehicle
Procedure: as §1
All animals received intraperitoneal administration of calcein green (10 mg/kg) 10 days and 2 days before sacrifice. Animals were housed in social groups and maintained in a 12 h:12 h light/dark cycle. They had free access to water and food. At necropsy, blood was collected by intracardiac aspiration into EDTA-treated tubes. Blood samples were centrifuged at 13,000 g for 15 min, aliquoted and stored at -80°C until plasma levels of exendin-4 (#EK-070-94, Phoenix pharmaceuticals, Burlingame, CA) and calcitonin (NBP3-06734, Bio-Techne Ltd, Abingdon, UK) were measured according to the manufacturer’s protocol. Plasma levels of the bone remodeling markers C-terminal telopeptide of collagen type I (CTx-I – RatLaps, Immunodiagnostic Systems Ltd, Boldon, UK) and N-terminal propeptide of type I collagen (P1NP - Rat/mouse P1NP, Immunodiagnostic Systems Ltd) were measured according to the manufacturers’ recommendation. Right femurs were wrapped in saline-soaked gauze and frozen at -20°C until use. Right tibiae were fixed in ethanol-based fixative and stored at 4°C until use. No specific inclusion or exclusion criteria were applied for animal selection. […] Additionally, correct implantation of the cerebral perfusion cannulas for icv-administered animals was verified at necropsy. All animals meeting these criteria were included in the study.
After microCT, right tibias were embedded undecalcified in polymethylmethacrylate (pMMA) at 4°C as previously reported ([32]). Seven micron-thick sections were made with a sledge microtome (Polycut S, Leica, Nanterre, France) prior to histoenzymatic detection of TRAP or Goldner trichrome staining. Dynamic histomorphometry was perfomed after counterstaining the bone matrix with calcein blue. All histomorphometrical parameters were measured with an in-house written application developed in Matlab R2023b (The Mathworks, Natick, CA, RRID:SCR_001622) according to guidelines and nomenclature proposed by the American Society for Bone and Mineral Research ([33]).

[4] = icv Ex-4 70 pmol/day, vs OVX+vehicle, p<0.001

exendin-4 [Ex-4]
increase in tissue material strength ([1]; icv Ex-4 70 pmol/day, p=0.005): 9%
increase in tissue material strength ([1]; s.c. Ex-4 ~700 pmol/day, p=0.043): 11%
increase in collagen maturity (1660/1690 cm^-1 subband ratio) ([2]; icv Ex-4 70 pmol/day, OVX, p<0.001): 22%
bone mineral (material level) ([2]; s.c. Ex-4 ~700 pmol/day, OVX): not affected
increase in collagen maturity (1660/1690 cm^-1 subband ratio) ([2]; s.c. Ex-4 ~700 pmol/day, vs OVX+vehicle, p=0.005): 18%
BFR/BS ([3]; OVX + Ex-4, icv 70 pmol/day): 0.282 ± 0.065 μm^3/μm^2/day
MAR ([3]; OVX + Ex-4, icv 70 pmol/day): 2.17 ± 0.41 μm/day
MS/BS ([3]; OVX + Ex-4, icv 70 pmol/day): 12.9 ± 1.2%
O.Th ([3]; OVX + Ex-4, icv 70 pmol/day): 4.7 ± 0.7 μm
OS/BS ([3]; OVX + Ex-4, icv 70 pmol/day): 3.0 ± 2.2%
N.Oc/B.Pm ([3]; OVX + Ex-4, icv 70 pmol/day): 1.01 ± 0.27 ^*** mm^-1
Oc.S/BS ([3]; OVX + Ex-4, icv 70 pmol/day): 0.96 ± 0.27 %
BFR/BS ([3]; OVX + Ex-4, s.c. ~700 pmol/day): 0.301 ± 0.059 μm^3/μm^2/day
MAR ([3]; OVX + Ex-4, s.c. ~700 pmol/day): 2.30 ± 0.35 μm/day
MS/BS ([3]; OVX + Ex-4, s.c. ~700 pmol/day): 13.0 ± 1.3%
O.Th ([3]; OVX + Ex-4, s.c. ~700 pmol/day): 4.8 ± 0.8 μm
OS/BS ([3]; OVX + Ex-4, s.c. ~700 pmol/day): 2.4 ± 1.0%
N.Oc/B.Pm ([3]; OVX + Ex-4, s.c. ~700 pmol/day): 1.11 ± 0.26
Oc.S/BS ([3]; OVX + Ex-4, s.c. ~700 pmol/day): 0.99 ± 0.28 %
change in number of osteoclasts [3, 4]: -51%
change in osteoclast surfaces [3, 4]: -45%
change in number of osteoclasts and osteoclast surfaces ([3]; s.c. Ex-4 ~700 pmol/day, vs OVX+vehicle, p<0.001): -41%
